In ChEMBL document CHEMBL3991601, “The target landscape of clinical kinase drugs” (Science, 2017):
The source made the active and inactive calls.

Assays:
[1] = biological target: T1, Tyrosine--tRNA ligase, cytoplasmic (Homo sapiens, UniProt P54577)
T1 sequence (P54577 whole entry): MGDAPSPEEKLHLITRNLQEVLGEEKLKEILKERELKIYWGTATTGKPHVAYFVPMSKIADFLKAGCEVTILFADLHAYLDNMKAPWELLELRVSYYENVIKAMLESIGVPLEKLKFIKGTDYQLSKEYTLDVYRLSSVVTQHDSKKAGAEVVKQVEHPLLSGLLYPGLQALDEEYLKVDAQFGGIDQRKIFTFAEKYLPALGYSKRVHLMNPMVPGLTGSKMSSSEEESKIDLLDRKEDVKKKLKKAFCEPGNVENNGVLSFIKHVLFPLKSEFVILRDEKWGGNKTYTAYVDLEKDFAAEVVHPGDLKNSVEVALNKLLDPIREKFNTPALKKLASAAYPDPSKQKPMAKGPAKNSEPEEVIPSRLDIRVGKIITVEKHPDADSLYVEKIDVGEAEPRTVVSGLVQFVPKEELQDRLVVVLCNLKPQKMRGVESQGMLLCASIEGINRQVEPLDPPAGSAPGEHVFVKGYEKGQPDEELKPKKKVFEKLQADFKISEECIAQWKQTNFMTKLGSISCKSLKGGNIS

Aurora kinase B = Aurora kinase B (Homo sapiens, UniProt Q96GD4)
[2] = biological target: T2, Exosome RNA helicase MTR4 (Homo sapiens, UniProt P42285)
T2 sequence (P42285 whole entry): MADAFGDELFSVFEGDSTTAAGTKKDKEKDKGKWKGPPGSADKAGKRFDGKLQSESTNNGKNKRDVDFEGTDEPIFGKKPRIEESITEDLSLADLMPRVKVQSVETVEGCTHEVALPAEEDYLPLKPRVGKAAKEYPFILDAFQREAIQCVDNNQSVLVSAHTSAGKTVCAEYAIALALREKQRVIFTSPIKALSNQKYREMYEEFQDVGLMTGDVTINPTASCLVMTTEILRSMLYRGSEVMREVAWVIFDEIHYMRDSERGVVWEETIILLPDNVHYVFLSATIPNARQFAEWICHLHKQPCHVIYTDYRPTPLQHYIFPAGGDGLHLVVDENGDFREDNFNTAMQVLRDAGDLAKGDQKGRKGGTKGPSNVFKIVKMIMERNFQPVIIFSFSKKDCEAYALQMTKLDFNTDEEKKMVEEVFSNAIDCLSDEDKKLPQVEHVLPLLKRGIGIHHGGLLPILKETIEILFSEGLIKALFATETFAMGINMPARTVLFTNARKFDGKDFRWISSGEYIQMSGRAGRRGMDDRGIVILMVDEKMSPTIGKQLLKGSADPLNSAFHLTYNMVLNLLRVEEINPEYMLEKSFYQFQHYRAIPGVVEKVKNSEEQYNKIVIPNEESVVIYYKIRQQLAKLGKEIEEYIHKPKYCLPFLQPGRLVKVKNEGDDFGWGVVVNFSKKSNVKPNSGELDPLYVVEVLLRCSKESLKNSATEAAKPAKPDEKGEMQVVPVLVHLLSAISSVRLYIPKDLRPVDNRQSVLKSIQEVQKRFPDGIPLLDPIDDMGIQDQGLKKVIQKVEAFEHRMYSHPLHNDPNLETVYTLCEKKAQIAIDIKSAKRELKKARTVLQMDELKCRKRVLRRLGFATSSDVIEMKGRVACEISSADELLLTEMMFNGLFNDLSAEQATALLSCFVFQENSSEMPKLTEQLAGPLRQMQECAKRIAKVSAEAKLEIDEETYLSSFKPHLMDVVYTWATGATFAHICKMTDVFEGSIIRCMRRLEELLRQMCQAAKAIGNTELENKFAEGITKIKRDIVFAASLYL

[3] = biological target: T3, Glycogen phosphorylase, brain form (Homo sapiens, UniProt P11216)
T3 sequence (P11216 whole entry): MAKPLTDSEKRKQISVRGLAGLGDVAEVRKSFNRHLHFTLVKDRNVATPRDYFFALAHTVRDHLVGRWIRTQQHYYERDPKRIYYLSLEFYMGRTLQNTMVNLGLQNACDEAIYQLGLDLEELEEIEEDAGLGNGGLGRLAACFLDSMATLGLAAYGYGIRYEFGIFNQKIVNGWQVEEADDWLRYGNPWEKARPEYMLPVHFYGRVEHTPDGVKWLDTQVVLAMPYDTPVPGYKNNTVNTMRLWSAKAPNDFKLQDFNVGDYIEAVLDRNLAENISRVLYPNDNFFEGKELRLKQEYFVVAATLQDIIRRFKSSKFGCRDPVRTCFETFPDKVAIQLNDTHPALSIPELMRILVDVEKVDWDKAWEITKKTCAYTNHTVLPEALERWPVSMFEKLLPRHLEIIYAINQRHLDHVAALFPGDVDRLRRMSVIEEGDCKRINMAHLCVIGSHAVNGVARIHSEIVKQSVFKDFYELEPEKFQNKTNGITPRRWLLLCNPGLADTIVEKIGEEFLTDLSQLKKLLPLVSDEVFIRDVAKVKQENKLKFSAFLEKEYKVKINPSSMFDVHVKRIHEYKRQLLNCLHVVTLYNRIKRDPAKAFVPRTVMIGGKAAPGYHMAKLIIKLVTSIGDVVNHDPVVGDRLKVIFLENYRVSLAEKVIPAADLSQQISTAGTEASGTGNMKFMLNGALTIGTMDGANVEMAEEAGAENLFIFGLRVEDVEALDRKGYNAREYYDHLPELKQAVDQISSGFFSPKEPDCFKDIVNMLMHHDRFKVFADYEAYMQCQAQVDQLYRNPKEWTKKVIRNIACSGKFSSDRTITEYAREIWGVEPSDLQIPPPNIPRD

[4] = biological target: T4, Ras-related protein Rab-27A (Homo sapiens, UniProt P51159)
T4 sequence (P51159 whole entry): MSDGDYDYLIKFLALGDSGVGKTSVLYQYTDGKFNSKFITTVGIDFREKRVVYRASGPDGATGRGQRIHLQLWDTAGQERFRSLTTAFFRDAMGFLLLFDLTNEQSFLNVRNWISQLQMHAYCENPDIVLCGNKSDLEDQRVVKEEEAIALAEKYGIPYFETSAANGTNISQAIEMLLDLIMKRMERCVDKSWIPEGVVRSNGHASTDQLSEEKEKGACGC

[5] = biological target: Tyrosine-protein kinase Yes (Homo sapiens, UniProt P07947)
[6] = biological target: Serine/threonine-protein kinase MRCK beta (Homo sapiens, UniProt Q9Y5S2)
Further: in the data inactive means no Kd found up to 30 µM.

Chain of Serine/threonine-protein kinase MRCK beta (Q9Y5S2 whole entry): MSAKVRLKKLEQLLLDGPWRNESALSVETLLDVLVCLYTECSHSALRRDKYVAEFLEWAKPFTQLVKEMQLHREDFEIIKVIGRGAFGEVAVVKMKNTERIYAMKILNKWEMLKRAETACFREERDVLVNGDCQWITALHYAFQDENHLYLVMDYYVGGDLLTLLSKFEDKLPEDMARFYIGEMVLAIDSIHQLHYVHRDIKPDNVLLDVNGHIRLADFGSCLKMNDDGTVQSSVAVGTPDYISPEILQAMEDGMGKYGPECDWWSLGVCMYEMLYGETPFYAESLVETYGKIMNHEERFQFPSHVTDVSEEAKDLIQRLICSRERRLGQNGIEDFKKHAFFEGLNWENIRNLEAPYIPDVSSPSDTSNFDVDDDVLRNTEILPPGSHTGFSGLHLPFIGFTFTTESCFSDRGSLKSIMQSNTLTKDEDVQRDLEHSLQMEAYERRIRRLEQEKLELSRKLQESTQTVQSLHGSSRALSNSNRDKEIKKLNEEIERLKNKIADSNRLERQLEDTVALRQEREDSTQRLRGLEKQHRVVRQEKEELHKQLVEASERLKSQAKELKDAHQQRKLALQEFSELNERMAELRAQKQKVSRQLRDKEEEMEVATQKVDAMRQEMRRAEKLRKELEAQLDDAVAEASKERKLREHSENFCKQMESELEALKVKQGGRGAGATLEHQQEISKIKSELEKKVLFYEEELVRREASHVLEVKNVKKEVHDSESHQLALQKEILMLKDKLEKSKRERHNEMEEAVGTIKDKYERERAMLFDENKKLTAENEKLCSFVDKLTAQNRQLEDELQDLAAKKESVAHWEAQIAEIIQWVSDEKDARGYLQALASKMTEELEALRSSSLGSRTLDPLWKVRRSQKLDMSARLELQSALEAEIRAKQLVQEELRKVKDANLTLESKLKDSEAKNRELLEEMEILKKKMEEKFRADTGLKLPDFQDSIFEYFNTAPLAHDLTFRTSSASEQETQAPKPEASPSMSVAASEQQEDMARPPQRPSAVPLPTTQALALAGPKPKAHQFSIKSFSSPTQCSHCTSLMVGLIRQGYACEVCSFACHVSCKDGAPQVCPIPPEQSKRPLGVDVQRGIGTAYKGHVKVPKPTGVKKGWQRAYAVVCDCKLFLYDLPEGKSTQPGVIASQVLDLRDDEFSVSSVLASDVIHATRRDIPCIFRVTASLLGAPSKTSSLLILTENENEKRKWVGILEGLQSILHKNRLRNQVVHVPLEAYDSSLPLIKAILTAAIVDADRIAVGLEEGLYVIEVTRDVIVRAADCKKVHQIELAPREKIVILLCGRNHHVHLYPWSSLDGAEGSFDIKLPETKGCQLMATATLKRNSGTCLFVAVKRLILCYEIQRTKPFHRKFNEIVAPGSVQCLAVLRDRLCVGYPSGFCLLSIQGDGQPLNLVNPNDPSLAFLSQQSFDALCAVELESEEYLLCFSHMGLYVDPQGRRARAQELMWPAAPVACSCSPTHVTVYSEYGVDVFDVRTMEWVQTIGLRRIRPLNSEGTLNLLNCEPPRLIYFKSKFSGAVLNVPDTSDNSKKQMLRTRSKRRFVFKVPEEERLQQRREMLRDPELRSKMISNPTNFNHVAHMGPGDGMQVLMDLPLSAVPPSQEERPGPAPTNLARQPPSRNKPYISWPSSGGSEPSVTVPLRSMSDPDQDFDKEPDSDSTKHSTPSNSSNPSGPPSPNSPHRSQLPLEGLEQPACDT
Chain of Aurora kinase B (Q96GD4 whole entry): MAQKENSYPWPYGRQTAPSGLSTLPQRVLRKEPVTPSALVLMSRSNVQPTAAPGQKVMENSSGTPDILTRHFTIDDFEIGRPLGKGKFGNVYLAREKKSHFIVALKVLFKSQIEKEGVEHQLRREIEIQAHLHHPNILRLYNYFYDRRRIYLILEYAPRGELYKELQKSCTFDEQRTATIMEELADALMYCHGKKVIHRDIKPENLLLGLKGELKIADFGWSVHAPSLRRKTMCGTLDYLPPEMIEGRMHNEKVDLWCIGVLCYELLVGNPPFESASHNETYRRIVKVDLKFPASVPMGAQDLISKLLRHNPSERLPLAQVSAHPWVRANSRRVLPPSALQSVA
Chain of Tyrosine-protein kinase Yes (P07947 whole entry): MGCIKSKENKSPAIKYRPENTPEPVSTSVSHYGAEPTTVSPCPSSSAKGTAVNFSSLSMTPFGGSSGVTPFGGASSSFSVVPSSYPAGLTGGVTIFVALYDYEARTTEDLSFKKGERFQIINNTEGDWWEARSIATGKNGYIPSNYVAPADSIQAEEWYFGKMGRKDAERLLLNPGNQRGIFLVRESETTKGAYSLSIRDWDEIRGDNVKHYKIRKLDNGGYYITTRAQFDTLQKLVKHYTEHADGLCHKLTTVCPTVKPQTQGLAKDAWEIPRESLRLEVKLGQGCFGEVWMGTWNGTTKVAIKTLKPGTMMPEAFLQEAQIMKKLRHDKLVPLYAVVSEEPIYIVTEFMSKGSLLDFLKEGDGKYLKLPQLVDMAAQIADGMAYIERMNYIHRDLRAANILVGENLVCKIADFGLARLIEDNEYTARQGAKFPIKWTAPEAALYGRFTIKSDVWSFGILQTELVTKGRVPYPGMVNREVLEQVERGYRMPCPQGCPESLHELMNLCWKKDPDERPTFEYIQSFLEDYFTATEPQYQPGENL

| Structure (SMILES) | Kd [1] | Kd (Aurora kinase B) | Kd [2] | Kd [3] | Kd [4] | Kd [5] | Kd [6] |
| --- | --- | --- | --- | --- | --- | --- | --- |
| COc1cc(F)c(F)c(Nc2ccc(I)cc2F)c1NS(=O)(=O)C1(C[C@H](O)CO)CC1 [REFAMETINIB] | > 30 µM (inactive) | > 30 µM (inactive) | > 30 µM (inactive) | > 30 µM (inactive) | > 30 µM (inactive) | > 30 µM (inactive) | > 30 µM (inactive) |
| CC1(COc2ccc3c(c2)ncn3-c2ccc3cccc(N4CCC(N)CC4)c3n2)COC1 [CRENOLANIB] | 3.32 µM | > 30 µM (inactive) | > 30 µM (inactive) | > 30 µM (inactive) | > 30 µM (inactive) | > 30 µM (inactive) | > 30 µM (inactive) |
| CC(C)CC(=O)Nc1[nH]nc2c1CN(C(=O)C1CCN(C)CC1)C2(C)C [PHA-793887] | > 30 µM (inactive) | > 30 µM (inactive) | > 30 µM (inactive) | > 30 µM (inactive) | > 30 µM (inactive) | > 30 µM (inactive) | > 30 µM (inactive) |
| CC[C@@](C)(Nc1ccnc(-c2c[nH]c3ncccc23)n1)C(=O)NCC(F)(F)F [DECERNOTINIB] | > 30 µM (inactive) | > 30 µM (inactive) | > 30 µM (inactive) | > 30 µM (inactive) | > 30 µM (inactive) | > 30 µM (inactive) | 0.116 µM (active) |
| Cc1c(NC(=O)OC[C@@H]2COCCN2)cn2ncnc(Nc3ccc4c(cnn4Cc4cccc(F)c4)c3)c12 [AC-480] | > 30 µM (inactive) | > 30 µM (inactive) | > 30 µM (inactive) | > 30 µM (inactive) | > 30 µM (inactive) | > 30 µM (inactive) | > 30 µM (inactive) |
| COCCN1CCN(Cc2ccc(-c3n[nH]c4c3C(=O)c3c(NC(=O)NN5CCOCC5)cccc3-4)cc2)CC1 [RGB-286638] | > 30 µM (inactive) | > 30 µM (inactive) | > 30 µM (inactive) | > 30 µM (inactive) | > 30 µM (inactive) | > 30 µM (inactive) | 1.02 µM (active) |
| CN(c1ncccc1CNc1nc(Nc2ccc3c(c2)CC(=O)N3)ncc1C(F)(F)F)S(C)(=O)=O [PF-00562271] | > 30 µM (inactive) | 1.04 µM (active) | > 30 µM (inactive) | > 30 µM (inactive) | > 30 µM (inactive) | > 30 µM (inactive) | > 30 µM (inactive) |
| NC[C@@](O)(c1ccc(Cl)cc1)c1ccc(-c2cn[nH]c2)cc1 [AT-13148] | > 30 µM (inactive) | > 30 µM (inactive) | > 30 µM (inactive) | > 30 µM (inactive) | > 30 µM (inactive) | > 30 µM (inactive) | > 30 µM (inactive) |
| Cc1ccc(C(=O)Nc2ccc(Oc3cc4cnn(C)c4cc3-c3cn[nH]c3)c(F)c2)c(=O)n1-c1ccc(F)cc1 [MERESTINIB] | > 30 µM (inactive) | > 30 µM (inactive) | > 30 µM (inactive) | > 30 µM (inactive) | > 30 µM (inactive) | > 30 µM (inactive) | > 30 µM (inactive) |

Next, values leading:

| Kd [1] | Kd (Aurora kinase B) | Kd [2] | Kd [3] | Kd [4] | Kd [5] | Kd [6] | Structure (SMILES) |
| --- | --- | --- | --- | --- | --- | --- | --- |
| > 30 µM (inactive) | > 30 µM (inactive) | > 30 µM (inactive) | > 30 µM (inactive) | > 30 µM (inactive) | > 30 µM (inactive) | > 30 µM (inactive) | O=c1[nH]c([C@@H]2CCCN2)nc2c1oc1ccc(Cl)cc12 |
| > 30 µM (inactive) | > 30 µM (inactive) | > 30 µM (inactive) | > 30 µM (inactive) | > 30 µM (inactive) | > 30 µM (inactive) | > 30 µM (inactive) | CCc1cc2c(cc1N1CCC(N3CCOCC3)CC1)C(C)(C)c1[nH]c3cc(C#N)ccc3c1C2=O [ALECTINIB] |
| > 30 µM (inactive) | > 30 µM (inactive) | > 30 µM (inactive) | > 30 µM (inactive) | > 30 µM (inactive) | > 30 µM (inactive) | > 30 µM (inactive) | COc1cc2ncnc(Nc3ccc(F)c(Cl)c3)c2cc1NC(=O)/C=C/CN1CCCCC1 [DACOMITINIB ANHYDROUS] |
| > 30 µM (inactive) | > 30 µM (inactive) | > 30 µM (inactive) | > 30 µM (inactive) | > 30 µM (inactive) | > 30 µM (inactive) | > 30 µM (inactive) | C#Cc1cccc(Nc2ncnc3cc4c(cc23)OCCOCCOCCO4)c1 [ICOTINIB] |
| > 30 µM (inactive) | > 30 µM (inactive) | > 30 µM (inactive) | > 30 µM (inactive) | > 30 µM (inactive) | > 30 µM (inactive) | > 30 µM (inactive) | COc1ccc2c(OCc3nnc4ccc(-c5ccccc5)nn34)ccnc2c1 [AMG-208] |
| > 30 µM (inactive) | > 30 µM (inactive) | > 30 µM (inactive) | > 30 µM (inactive) | > 30 µM (inactive) | > 30 µM (inactive) | > 30 µM (inactive) | CNC(=O)c1cccc(-c2ccc3c(N4CCOC[C@@H]4C)nc(N4CCOC[C@@H]4C)nc3n2)c1 [VISTUSERTIB] |
| > 30 µM (inactive) | > 30 µM (inactive) | > 30 µM (inactive) | > 30 µM (inactive) | > 30 µM (inactive) | > 30 µM (inactive) | > 30 µM (inactive) | COc1cc2ncnc3c2cc1OCCCCCN(C)Cc1ccc(Br)cc1N3 [JNJ-26483327] |
| > 30 µM (inactive) | > 30 µM (inactive) | > 30 µM (inactive) | > 30 µM (inactive) | > 30 µM (inactive) | 1.03 µM (active) | > 30 µM (inactive) | COc1cccc(Nc2ncnn3ccc(CN4CC[C@@H](N)[C@H](O)C4)c23)c1 [BMS-690514] |
| > 30 µM (inactive) | > 30 µM (inactive) | > 30 µM (inactive) | > 30 µM (inactive) | > 30 µM (inactive) | > 30 µM (inactive) | > 30 µM (inactive) | O[C@H]1CC[C@H](Nc2ncc3nc(Nc4c(F)cc(F)cc4F)n([C@H]4CCOC4)c3n2)CC1 [TANZISERTIB] |
